Measurements published in patent publication US12649733B2, “3,6-diamino-pyridazin-3-yl derivatives, pharmaceutical compositions containing them and their uses as pro-apoptotic agents” (LES LABORATOIRES SERVIER, priority 2019, dated 2026).

How the values were obtained:
MOLT-4 cells = test: MOLT-4 cell viability, MTT assay; type: cell-based; conditions: Homo sapiens, MOLT-4, 48 h, 48 h exposure
In short: (§1)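 Viability read by MTT reduction (OD 540 nm after overnight SDS/HCl lysis) after 48 h compound treatment of cells in RPMI 1640/10% FBS. Triplicates at nine concentrations, 3.16-fold apart; four-parameter curve fitting yields IC50.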

Bcl-xL protein = target: T1, Bcl-xL protein (Homo sapiens, UniProt Q07817, N197C); test: Fluorescence quenching assay (PUMA peptide displacement); type: binding; conditions: 1 nM protein, 400 nM peptide, 2 hours at 23° C.; KI determined from IC50
T1 construct: (2-197)[N197C]; His-His (two His8 stretches joined by a Gly/Ala/Ser/Thr linker)
Source text: Fluorescence quenching assay measures the change in fluorescence intensity of C-terminally Cy5-labeled BCL-xL protein, His-His-(EK)-hs ? (2-197)[N197C] (UniProtKB® primary accession number Q07817-1) having an amino acid sequence (SEQ ID:03): [[…] […] […] […] […]] which is linked in C-terminal region to the amino acid X which corresponds to a cysteine labeled on the sulfur with Sulfo-Cyanine5 from Lumiprobe GmbH catalogue number 13380, upon binding of a C-terminally labeled peptide derived from PUMA (UniProtKB® primary accession number Q9BXH1) having an aminoacid sequence (SEQ ID:04): [[…]] which is linked in C-terminal region to the amino acid X′ where X′ is cysteine labeled on the sulfur with TQ5WS from AAT Bioquest catalogue number 2079.
The addition of a compound which binds competitively to the same site as the peptide will result in an increase in the fluorescence intensity of the protein due to displacement of the fluorescence quencher.
An 11-point serial dilution of each compound was prepared in DMSO the final buffer conditions were 10 mM 4-(2-hydroxyethyl)-1-piperazineethanesulfonic acid [HEPES], 150 mM NaCl, 0.05% Tween 20, pH 7.4 and 5% DMSO. The final protein concentration in the assay was 1 nM with the peptide present at 400 nM. The experiments were incubated for 2 hours at 23° C. before fluorescence intensity was measured on a Biotek SynergyNeo plate reader (Excitation 620 nm, emission 680 nm). […] The KI values were determined from the IC50 values according to Cer et al, Nucleic Acids Res, 2009, Jul. 1: 37(WebServer issue): W441-W445.

H146 cells = test: H146 cell viability, MTT assay; type: cell-based; conditions: 48 h exposure
In short: as §1

T1 sequence (Q07817 2-197 N197C): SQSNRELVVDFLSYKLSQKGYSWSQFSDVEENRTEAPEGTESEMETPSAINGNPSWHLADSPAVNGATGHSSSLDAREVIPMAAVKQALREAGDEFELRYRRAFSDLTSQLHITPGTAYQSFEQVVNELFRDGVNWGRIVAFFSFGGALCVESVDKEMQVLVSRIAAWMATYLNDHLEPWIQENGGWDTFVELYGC

Question: For `COC(COc1ccc(C#CCN(C)C)cc1F)Cc1sc(N(C)c2cc(C)c(Nc3nc4ccccc4s3)nn2)nc1C(=O)O` (stereo not drawn) [Example 183, 2-({6-[(1,3-Benzothiazol-2-yl)amino]-5-methylpyridazin-3-yl}(methyl)amino)-5-(3-{4-[3-(dimethylamino)prop-1-yn-1-yl]-2-fluorophenoxy}-2-methoxypropyl)-1,3-thiazole-4-carboxylic acid], which IC50 (MOLT-4 cells) is on record?
Answer: The IC50 was 46.5 nM.

Question: And the Ki (Bcl-xL protein)?
Answer: Its Ki is 0.0078 nM.

Question: What about the IC50 (H146 cells; Homo sapiens, NCI-H146, 48 h) of the same molecule?
Answer: Its IC50 is 187 nM.

Question: For `Cc1cc(N(C)c2nc(C(=O)O)c(CCCOc3ccc(C#CCN4CCOCC4)cc3F)s2)nnc1Nc1nc2ccccc2s1` [Example 198, 2-[[6-(1,3-Benzothiazol-2-ylamino)-5-methyl-pyridazin-3-yl]-methyl-amino]-5-[3-[2-fluoro-4-(3-morpholinoprop-1-ynyl)phenoxy]propyl]thiazole-4-carboxylic acid], which IC50 (MOLT-4 cells) is on record?
Answer: The IC50 was 1.59 nM.

Question: What about the Ki (Bcl-xL protein) of the same molecule?
Answer: Its Ki is 0.0073 nM.

Question: And the IC50 (H146 cells; Homo sapiens, NCI-H146, 48 h)?
Answer: Its IC50 is 1420 nM.

Question: Which IC50 (MOLT-4 cells) does the source give for `Cc1cc(N(CCCCCNCCCN2CCN(C)CC2)c2nc(C(=O)O)c(CCCOc3ccc(C#CCN(C)C)cc3F)s2)nnc1Nc1nc2ccccc2s1` [Example 195, 2-[[6-(1,3-Benzothiazol-2-ylamino)-5-methyl-pyridazin-3-yl]-[5-[3-(4-methylpiperazin-1-yl)propylamino]pentyl]amino]-5-[3-[4-[3-(dimethylamino)prop-1-ynyl]-2-fluoro-phenoxy]propyl]thiazole-4-carboxylic acid] here?
Answer: The IC50 was 529 nM.

Question: And the Ki (Bcl-xL protein)?
Answer: Its Ki is 0.0018 nM.

Question: And the IC50 (H146 cells; Homo sapiens, NCI-H146, 48 h)?
Answer: Its IC50 is 525 nM.

Question: With `CNCC#Cc1ccc(OCCCc2sc(N(CCCCC[N+](C)(C)CCCS(=O)(=O)[O-])c3cc(C)c(Nc4nc5ccccc5s4)nn3)nc2C(=O)O)c(F)c1` [Example 212, 3-[5-[[6-(1,3-Benzothiazol-2-ylamino)-5-methyl-pyridazin-3-yl]-[4-carboxy-5-[3-[2-fluoro-4-[3-(methylamino)prop-1-ynyl]phenoxy]propyl]thiazol-2-yl]amino]pentyl-dimethyl-ammonio]propane-1-sulfonate] as the molecule, how does the IC50 (MOLT-4 cells) read?
Answer: Its IC50 is 2880 nM.

Question: And the Ki (Bcl-xL protein)?
Answer: The Ki was 0.001 nM.

Question: And the IC50 (H146 cells; Homo sapiens, NCI-H146, 48 h)?
Answer: The IC50 was 3240 nM.

Question: What does the source list for `Cc1cc(N(CCCCCN2CCNCC2)c2nc(C(=O)O)c(CCCOc3ccc(C#CCN(C)C)cc3F)s2)nnc1Nc1nc2ccccc2s1` [Example 189, 2-[[6-(1,3-Benzothiazol-2-ylamino)-5-methyl-pyridazin-3-yl]-(5-piperazin-1-ylpentyl)amino]-5-[3-[4-[3-(dimethylamino)prop-1-ynyl]-2-fluoro-phenoxy]propyl]thiazole-4-carboxylic acid]?
Answer: IC50 (MOLT-4 cells): 171 nM; Ki (Bcl-xL protein): 0.0074 nM; IC50 (H146 cells; Homo sapiens, NCI-H146, 48 h): 94.8 nM

Question: For `Cc1cc(N(C)c2nc(C(=O)O)c(CCCOc3ccc(C#CCN4CCCC4)cc3F)s2)nnc1Nc1nc2ccccc2s1` [Example 203, 2-[[6-(1,3-Benzothiazol-2-ylamino)-5-methyl-pyridazin-3-yl]-methyl-amino]-5-[3-[2-fluoro-4-(3-pyrrolidin-1-ylprop-1-ynyl)phenoxy]propyl]thiazole-4-carboxylic acid], which IC50 (MOLT-4 cells) is on record?
Answer: Its IC50 is 0.753 nM.

Question: And the Ki (Bcl-xL protein)?
Answer: Its Ki is 0.0022 nM.

Question: And the IC50 (H146 cells; Homo sapiens, NCI-H146, 48 h)?
Answer: Its IC50 is 3.9 nM.

Question: For `Cc1cc(N(C)c2nc(C(=O)O)c(CCCOc3ccc(C#CC(C)N4CCOCC4)cc3F)s2)nnc1Nc1nc2ccccc2s1` (single isomer, unassigned) [Example 206, 2-[[6-(1,3-Benzothiazol-2-ylamino)-5-methyl-pyridazin-3-yl]-methyl-amino]-5-[3-[2-fluoro-4-((3R or 3S)-morpholinobut-1-ynyl)phenoxy]propyl]thiazole-4-carboxylic acid], which IC50 (MOLT-4 cells) is on record?
Answer: Its IC50 is 1.48 nM.

Question: And the Ki (Bcl-xL protein)?
Answer: Its Ki is 0.009 nM.

Question: And the IC50 (H146 cells)?
Answer: The IC50 was 15 nM.

Question: Which IC50 (MOLT-4 cells) does the source give for `Cc1cc(N(C)c2nc(C(=O)O)c(CCCOc3ccc(C#CC(C)N(C)C)cc3F)s2)nnc1Nc1nc2ccccc2s1` (stereo not drawn) [Example 205, 2-[[6-(1,3-Benzothiazol-2-ylamino)-5-methyl-pyridazin-3-yl]-methyl-amino]-5-[3-[4-[3-(dimethylamino)but-1-ynyl]-2-fluoro-phenoxy]propyl]thiazole-4-carboxylic acid] here?
Answer: Its IC50 is 0.374 nM.

Question: And the Ki (Bcl-xL protein)?
Answer: Its Ki is 0.0023 nM.

Question: And the IC50 (H146 cells; Homo sapiens, NCI-H146, 48 h)?
Answer: Its IC50 is no more than 5.93 nM.
